Experimental data as given in US10301288B2, “Kinase inhibitors” (Topivert Pharma Limited, priority 2013, dated 2019).

Columns and labels:
p38 MAPKα = p38 MAPKα (Homo sapiens (Human), UniProt Q16539); experiment: p38 MAPKα enzyme inhibition (FRET, Method 2); assay type: biochemical
Protocol: (§1) The enzyme inhibitory activities of compounds disclosed herein are determined by FRET using synthetic peptides labelled with both donor and acceptor fluorophores (Z-LYTE, Invitrogen Ltd., Paisley, UK).
The inhibitory activities of test compounds against the p38 MAPKα isoform (MAPK14: Invitrogen), are evaluated indirectly by determining the level of activation/phosphorylation of the down-stream molecule, MAPKAP-K2. The p38 MAPKα protein (80 ng/mL, 2.5 μL) is mixed with the test compound (2.5 μL of either 4 μg/mL, 0.4 μg/mL, 0.04 μg/mL or 0.004 μg/mL) for 2 hr at RT. […] The mixture is incubated for 1 hr at RT. Development reagent (protease, 5 μL) is added for 1 hr prior to detection in a fluorescence microplate reader (Varioskan® Flash, ThermoFisher Scientific).
(§2) In all cases, the site-specific protease cleaves non-phosphorylated peptide only and eliminates the FRET signal. Phosphorylation levels of each reaction are calculated using the ratio of coumarin emission (donor) over fluorescein emission (acceptor), for which high ratios indicate high phosphorylation and low ratios indicate low phosphorylation levels.

c-Src = c-Src (Homo sapiens (Human), UniProt P12931); experiment: c-Src enzyme inhibition (FRET); assay type: biochemical
c-Src, sequence (P12931 whole entry, looked up): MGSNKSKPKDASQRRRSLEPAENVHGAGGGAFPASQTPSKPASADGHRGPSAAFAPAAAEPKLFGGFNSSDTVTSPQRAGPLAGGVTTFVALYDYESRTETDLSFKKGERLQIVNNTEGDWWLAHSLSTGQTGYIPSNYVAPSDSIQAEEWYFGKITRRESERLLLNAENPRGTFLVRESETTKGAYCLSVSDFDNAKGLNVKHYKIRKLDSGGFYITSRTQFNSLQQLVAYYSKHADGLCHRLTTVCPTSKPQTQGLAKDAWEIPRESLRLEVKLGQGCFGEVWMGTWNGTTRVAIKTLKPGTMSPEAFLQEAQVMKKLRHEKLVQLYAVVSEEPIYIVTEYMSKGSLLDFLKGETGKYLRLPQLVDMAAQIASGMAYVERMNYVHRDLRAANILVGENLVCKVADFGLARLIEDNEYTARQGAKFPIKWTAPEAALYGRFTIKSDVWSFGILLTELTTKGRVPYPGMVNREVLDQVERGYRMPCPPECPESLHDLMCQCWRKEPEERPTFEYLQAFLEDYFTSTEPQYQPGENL
Protocol: as §1
(§3) The inhibitory activities of compounds of the invention against c-Src and Syk enzymes (Invitrogen), are evaluated in a similar fashion to that described hereinabove. The relevant enzyme (3000 ng/mL or 2000 ng/mL respectively, 2.5 μL) is incubated with the test compound (either 4 μg/mL, 0.4 μg/mL, 0.04 μg/mL, or 0.004 μg/mL, 2.5 μL each) for 2 hr at RT. The FRET peptides (8 μM. 2.5 μL), and appropriate ATP solutions (2.5 μL, 800 μM for c-Src, and 60 μM ATP for Syk) are then added to the enzymes/compound mixtures and incubated for 1 hr. Development reagent (protease, 5 μL) is added for 1 hr prior to detection in a fluorescence microplate reader (Varioskan® Flash, ThermoFisher Scientific).
as §2

Syk = Syk (Homo sapiens (Human), UniProt P43405); experiment: Syk enzyme inhibition (FRET); assay type: biochemical
Protocol: as §1, §3, §2

GSK3α = GSK3α (Homo sapiens (Human), UniProt P49840); experiment: GSK 3α enzyme inhibition (FRET, Method 2); assay type: biochemical
GSK3α, sequence (P49840 whole entry): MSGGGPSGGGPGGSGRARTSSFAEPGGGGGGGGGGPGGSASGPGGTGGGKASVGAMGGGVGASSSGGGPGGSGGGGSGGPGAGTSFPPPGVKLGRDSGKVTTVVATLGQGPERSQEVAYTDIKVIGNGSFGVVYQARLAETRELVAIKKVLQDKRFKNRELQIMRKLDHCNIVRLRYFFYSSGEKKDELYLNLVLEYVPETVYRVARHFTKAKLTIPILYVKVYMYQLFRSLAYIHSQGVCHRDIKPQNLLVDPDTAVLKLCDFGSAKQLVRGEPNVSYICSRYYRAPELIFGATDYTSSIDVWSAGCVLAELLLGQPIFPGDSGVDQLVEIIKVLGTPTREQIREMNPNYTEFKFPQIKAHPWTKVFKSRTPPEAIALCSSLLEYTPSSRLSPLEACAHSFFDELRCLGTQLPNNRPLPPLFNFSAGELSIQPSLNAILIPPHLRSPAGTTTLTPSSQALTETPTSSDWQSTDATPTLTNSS
Protocol: as §1
The inhibitory activities of compounds of the invention against the GSK 3α enzyme isoform (Invitrogen), are evaluated by determining the level of activation/phosphorylation of the target peptide. The GSK3-α protein (500 ng/mL, 2.5 μL) is mixed with the test compound (2.5 μL at either 4 μg/mL, 0.4 μg/mL, 0.04 μg/mL, or 0.004 μg/mL) for 2 hr at RT. The FRET peptide (8 μM, 2.5 μL), which is a phosphorylation target for GSK3α, and ATP (40 μM, 2.5 μL) are then added to the enzyme/compound mixture and the resulting mixture incubated for 1 hr. Development reagent (protease, 5 μL) is added for 1 hr prior to detection in a fluorescence microplate reader (Varioskan® Flash, ThermoFisher Scientific).
as §2

PBMCs [1] = experiment: (b) LPS-induced TNFα/IL-8 release in PBMC cells; assay type: cell-based; conditions: Homo sapiens, read-out: IC50 for Inhibition of Cytokine Release, IL-8
Protocol: Peripheral blood mononuclear cells (PBMCs) from healthy subjects are separated from whole blood using a density gradient (Lymphoprep, Axis-Shield Healthcare). The PBMCs are seeded in 96 well plates and treated with compounds at the desired concentration for 2 hours before addition of 1 ng/ml LPS (Escherichia Coli 0111:B4 from Sigma Aldrich) for 24 hours under normal tissue culture conditions (37° C., 5% CO2). The supernatant is harvested for determination of IL-8 and TNFα concentrations by sandwich ELISA (Duo-set, R&D systems) and read on the fluorescence microplate reader (Varioskan® Flash, ThermoFisher Scientific).

PBMCs [2] = experiment: (c) IL-2 and IFN gamma release in CD3/CD28 stimulated PBMC cells; assay type: cell-based; conditions: Homo sapiens
Protocol: PBMCs from healthy subjects are separated from whole blood using a density gradient (Lymphoprep, Axis-Shield Healthcare). Cells are added to a 96 well plate pre-coated with a mixture of CD3/CD28 monoclonal antibodies (0.3 ug/ml eBioscience and 3 ug/ml BD Pharmingen respectively). Compound at the desired concentration is then added to the wells and the plate left for 3 days under normal tissue culture conditions. […] The IC50 is determined from the dose response curve.

HT29 cells = experiment: (d) IL-1β-induced IL-8 release in HT29 cells; assay type: cell-based; conditions: Homo sapiens, HT-29, read-out: IC50 for Inhibition of Cytokine Release, IL-8
Protocol: HT29 cells, a human colon adenocarcinoma cell line, are plated in a 96 well plate (24 hrs) and pre-treated with compounds at the desired concentration for 2 hours before addition of 5 ng/ml of IL-1β (Abeam) for 24 hours. Supernatants are harvested for IL-8 quantification by Sandwich ELISA (Duo-set, R&D System). The IC50 is determined from the dose response curve.

β-catenin = experiment: (m) Accumulation of β catenin in d-U937 cells; assay type: cell-based, human; conditions: Reference Compound at 1 μg/mL defined as 100%
Protocol: U937 cells, a human monocytic cell line, are differentiated into macrophage-type cells by incubation with PMA; (100 ng/mL) for between 48 to 72 hr. The cells are then incubated with either final concentrations of test compound or vehicle for 18 hr. The induction of β-catenin by the test compounds is stopped by replacing the media with 4% formaldehyde solution. Endogenous peroxide activity is neutralised by incubating with quenching buffer (100 μL, 0.1% sodium azide, 1% H2O2 in PBS with 0.05% Tween-20) for 20 min. The cells are washed with washing buffer (200 μL; PBS containing 0.05% Tween-20) and incubated with blocking solution (200 μL; 5% milk in PBS) for 1 hr, re-washed with washing buffer (200 μL) and then incubated overnight with anti-β-catenin antibody solution (50 μL) in 1% BSA/PBS (BD, Oxford, UK).
After washing with washing buffer (3×200 μL; PBS containing 0.05% Tween-20), cells are incubated with an HRP-conjugated secondary antibody solution (100 μL) in 1% BSA/PBS (Dako, Cambridge, UK) and the resultant signal is determined colourimetrically (OD: 450 nm with a reference wavelength of 655 nm) using TMB substrate (50 μL; R&D Systems, Abingdon, UK). This reaction is stopped by addition of 1N H2SO4 solution (50 μL). Cells are then washed with washing buffer and 2% crystal violet solution (50 μL) is applied for 30 min. After washing with washing buffer (3×200 μL), 1% SDS (100 μL) is added to each well and the plates are shaken lightly for 1 hr prior to measuring the absorbance at 595 nm (Varioskan® Flash, Thermo-Fisher Scientific).
The measured OD450-655 readings are corrected for cell number by dividing the OD450-655 by the OD595 readings.

PBMCs [3] = experiment: (i) Cell mitosis assay in PBMCs; assay type: cell-based; conditions: Homo sapiens, PBMC, 5 μg/mL
Protocol: PBMCs from healthy subjects are separated from whole blood (Quintiles, London, UK) using a density gradient (Histopaque®-1077, Sigma-Aldrich, Poole, UK). The PBMCs (3 million cells per sample) are subsequently treated with 2% PHA (Sigma-Aldrich, Poole, UK) for 48 hr, followed by a 20 hr exposure to varying concentrations of test compounds. At 2 hr before collection, PBMCs are treated with demecolcine (0.1 μg/mL; Invitrogen, Paisley, UK) to arrest cells in metaphase. […] Fluorescence is observed using an ATTUNE flow cytometer (Invitrogen, Paisley, UK), gating for lymphocytes.

[4] = read-out: IC50 for Inhibition of Cytokine Release, IFNγ
[5] = read-out: IC50 for Inhibition of Cytokine Release, IL-2

p38 MAPKα, sequence (Q16539 whole entry): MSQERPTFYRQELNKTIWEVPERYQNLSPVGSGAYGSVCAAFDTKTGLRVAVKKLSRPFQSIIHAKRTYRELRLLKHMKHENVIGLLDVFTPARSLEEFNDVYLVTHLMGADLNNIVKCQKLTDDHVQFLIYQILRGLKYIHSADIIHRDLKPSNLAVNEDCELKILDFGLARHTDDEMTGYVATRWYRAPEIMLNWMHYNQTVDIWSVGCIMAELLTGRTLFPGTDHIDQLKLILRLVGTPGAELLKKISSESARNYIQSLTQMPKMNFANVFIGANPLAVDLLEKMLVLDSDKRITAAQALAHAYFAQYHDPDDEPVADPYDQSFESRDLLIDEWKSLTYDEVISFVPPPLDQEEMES

| SMILES | IC50 (p38 MAPKα) [nM] | IC50 (c-Src) [nM] | IC50 (Syk) [nM] | IC50 (GSK3α) [nM] | IC50 (PBMCs [1]) [nM] | IC50 (PBMCs [2]; [4]) [nM] | IC50 (HT29 cells) [nM] | % β-catenin induction (β-catenin; 1 μg/mL) [%] | % β-catenin induction (β-catenin; 5 μg/mL) [%] | % β-catenin induction (β-catenin; 10 μg/mL) [%] | inhibition at 5 µg/mL (PBMCs [3]) [%] | IC50 (PBMCs [2]; [5]) [nM] |
| --- | --- | --- | --- | --- | --- | --- | --- | --- | --- | --- | --- | --- |
| COCCOCCOCCNC(=O)c1cc(Nc2cc(Oc3ccc(NC(=O)Nc4cc(C(C)(C)C)nn4-c4ccc(N(C)C)cc4)c4ccccc34)ccn2)cc(OC)c1 [Example 10, 3-((4-((4-(3-(3-(tert-Butyl)-1-(4-(dimethylamino)phenyl)-1H-pyrazol-5-yl)ureido)-naphthalen-1-yl)oxy)pyridin-2-yl)amino)-5-methoxy-N-(2-(2-(2-methoxyethoxy)-ethoxy)ethyl)benzamide] | 110 | 25 | 48 | 12000 | 3.3 | 2.7 | 4.8 | 4 | 2 | 2 | – | – |
| C#Cc1cc(Nc2nccc(Oc3ccc(NC(=O)Nc4cc(C(C)(C)C)nn4-c4ccc(N(C)C)cc4)c4ccccc34)n2)cc(C(=O)NCCOCCOCCOC)c1 [Example 9, 3-((4-((4-(3-(3-(tert-Butyl)-1-(4-(dimethylamino)phenyl)-1H-pyrazol-5-yl)ureido)-naphthalen-1-yl)oxy)pyrimidin-2-yl)amino)-5-ethynyl-N-(2-(2-(2-methoxyethoxy)-ethoxy)ethyl)benzamide] | 98 | 15 | 35 | 12100 | 2.9 | 8.4 | 3.5 | 1 | 2 | 4 | – | – |
| C#Cc1cc(Nc2nccc(Oc3ccc(NC(=O)Nc4cc(C(C)C)nn4-c4ccc(C)cc4)c4ccccc34)n2)cc(C(=O)NCCOCCOCCOC)c1 [Example 1, 3-Ethynyl-5-((4-((4-(3-(3-isopropyl-1-(p-tolyl)-1H-pyrazol-5-yl)ureido)-naphthalen-1-yl)oxy)pyrimidin-2-yl)amino)-N-(2-(2-(2-methoxyethoxy)ethoxy)ethyl)-benzamide] | 25 | 30 | 370 | 12800 | 1.6 | – | – | −14 | −13 | −17 | 3.6 | – |
| [2H]c1c([2H])c(C([2H])([2H])[2H])c([2H])c([2H])c1-n1nc(C(C)(C)C)cc1NC(=O)Nc1ccc(Oc2ccnc(Nc3cc(C#C)cc(C(=O)NCCOCCOCCOC)c3)n2)c2ccccc12 [Example 6, 3-((4-((4-(3-(3-(tert-Butyl)-1-(2,3,5,6-tetradeutero-4-(trideuteromethyl)-phenyl)-1H-pyrazol-5-yl)ureido)naphthalen-1-yl)oxy)pyrimidin-2-yl)amino)-5-ethynyl-N-(2-(2-(2-methoxyethoxy)ethoxy)ethyl)benzamide] | – | 17 | 96 | – | 2.3 | 2.9 | 2.4 | 3 | 3 | −1 | 10.2 | 123 |
| C#Cc1cc(Nc2nccc(Oc3ccc(NC(=O)Nc4cc(C(C)(C)C)nn4-c4ccc(OC)cc4)c4ccccc34)n2)cc(C(=O)NCCOCCOCCOC)c1 [Example 3, 3-((4-((4-(3-(3-(tert-Butyl)-1-(4-methoxyphenyl)-1H-pyrazol-5-yl)ureido)-naphthalen-1-yl)oxy)pyrimidin-2-yl)amino)-5-ethynyl-N-(2-(2-(2-methoxyethoxy)-ethoxy)ethyl)benzamide] | 39 | 14 | 30 | 12200 | 1.2 | 2 | – | 1 | 6 | 6 | 2.1 | 7.5 |
| C#Cc1cc(Nc2nccc(Oc3ccc(NC(=O)Nc4cc(C(C)(C)C)nn4-c4ccc(OC)cc4)c4ccccc34)n2)cc(C(=O)NCCOCCOC)c1 [Example 5, 3-((4-((4-(3-(3-(tert-Butyl)-1-(4-methoxyphenyl)-1H-pyrazol-5-yl)ureido)-naphthalen-1-yl)oxy)pyrimidin-2-yl)amino)-5-ethynyl-N-(2-(2-methoxyethoxy)ethyl)-benzamide] | 33 | 13 | 34 | 13000 | 1.2 | 1.7 | – | 8 | 2 | 3 | 10.4 | 52.1 |
